Tests used:
[1] = tested on: Tyrosine-protein kinase ABL1 (Homo sapiens), P00519 [Q252H]; settings: Compound concentration 1000.0 nM
[2] = biological target: RAC-gamma serine/threonine-protein kinase (Homo sapiens) (UniProt Q9Y243); settings: Compound concentration 1000.0 nM
[3] = biological target: Cyclin-dependent kinase 2 (Homo sapiens) (UniProt P24941); settings: Compound concentration 1000.0 nM
[4] = biological target: Cyclin-dependent kinase 3 (Homo sapiens) (UniProt Q00526); settings: Compound concentration 1000.0 nM
[5] = biological target: Cyclin-dependent kinase 7 (Homo sapiens) (UniProt P50613); settings: Compound concentration 1000.0 nM
[6] = biological target: T1, Megakaryocyte-associated tyrosine-protein kinase (Homo sapiens) (UniProt P42679); settings: Compound concentration 1000.0 nM
T1 sequence (whole entry): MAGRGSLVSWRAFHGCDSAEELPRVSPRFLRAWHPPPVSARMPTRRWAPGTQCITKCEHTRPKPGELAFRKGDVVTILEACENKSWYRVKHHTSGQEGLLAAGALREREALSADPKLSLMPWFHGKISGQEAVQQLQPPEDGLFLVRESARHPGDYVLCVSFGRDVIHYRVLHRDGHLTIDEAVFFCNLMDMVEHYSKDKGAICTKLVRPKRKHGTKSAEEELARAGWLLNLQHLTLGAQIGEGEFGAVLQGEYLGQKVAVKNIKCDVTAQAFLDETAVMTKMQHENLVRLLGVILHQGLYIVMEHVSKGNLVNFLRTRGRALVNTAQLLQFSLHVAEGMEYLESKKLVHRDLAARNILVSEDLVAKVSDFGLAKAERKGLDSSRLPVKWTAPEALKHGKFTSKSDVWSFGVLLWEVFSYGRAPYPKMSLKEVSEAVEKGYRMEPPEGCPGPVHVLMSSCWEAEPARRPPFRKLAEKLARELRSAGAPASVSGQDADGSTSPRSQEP

[7] = tested on: Epidermal growth factor receptor (Homo sapiens), P00533 [UNDEFINED MUTATION]; settings: Compound concentration 1000.0 nM
[8] = biological target: Receptor tyrosine-protein kinase erbB-3 (Homo sapiens) (UniProt P21860); settings: Compound concentration 1000.0 nM
[9] = biological target: Focal adhesion kinase 1 (Homo sapiens) (UniProt Q05397); settings: Compound concentration 1000.0 nM
[10] = biological target: Serine/threonine-protein kinase STK11 (Homo sapiens) (UniProt Q15831); settings: Compound concentration 1000.0 nM
[11] = biological target: T2, MAP kinase-activated protein kinase 5 (Homo sapiens) (UniProt Q8IW41); settings: Compound concentration 1000.0 nM
T2 sequence (whole entry): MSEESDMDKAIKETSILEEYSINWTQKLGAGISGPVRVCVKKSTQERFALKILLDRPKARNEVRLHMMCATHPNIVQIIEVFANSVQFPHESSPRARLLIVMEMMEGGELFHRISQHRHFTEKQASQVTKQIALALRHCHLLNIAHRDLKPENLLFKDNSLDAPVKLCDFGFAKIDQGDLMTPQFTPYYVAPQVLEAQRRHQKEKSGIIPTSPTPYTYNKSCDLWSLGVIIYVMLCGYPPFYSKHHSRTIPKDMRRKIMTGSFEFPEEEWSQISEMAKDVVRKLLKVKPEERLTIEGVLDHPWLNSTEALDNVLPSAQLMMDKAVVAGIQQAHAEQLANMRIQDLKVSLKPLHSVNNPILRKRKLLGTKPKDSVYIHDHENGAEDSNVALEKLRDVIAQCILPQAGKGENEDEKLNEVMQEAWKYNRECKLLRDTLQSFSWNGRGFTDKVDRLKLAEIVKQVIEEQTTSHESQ

[12] = biological target: Myosin-IIIa (Homo sapiens) (UniProt Q8NEV4); settings: Compound concentration 1000.0 nM
[13] = biological target: Serine/threonine-protein kinase Nek6 (Homo sapiens) (UniProt Q9HC98); settings: Compound concentration 1000.0 nM
[14] = biological target: Mitogen-activated protein kinase 14 (Homo sapiens) (UniProt Q16539); settings: Compound concentration 1000.0 nM
[15] = biological target: T3, Mitogen-activated protein kinase 13 (Homo sapiens) (UniProt O15264); settings: Compound concentration 1000.0 nM
T3 sequence (whole entry): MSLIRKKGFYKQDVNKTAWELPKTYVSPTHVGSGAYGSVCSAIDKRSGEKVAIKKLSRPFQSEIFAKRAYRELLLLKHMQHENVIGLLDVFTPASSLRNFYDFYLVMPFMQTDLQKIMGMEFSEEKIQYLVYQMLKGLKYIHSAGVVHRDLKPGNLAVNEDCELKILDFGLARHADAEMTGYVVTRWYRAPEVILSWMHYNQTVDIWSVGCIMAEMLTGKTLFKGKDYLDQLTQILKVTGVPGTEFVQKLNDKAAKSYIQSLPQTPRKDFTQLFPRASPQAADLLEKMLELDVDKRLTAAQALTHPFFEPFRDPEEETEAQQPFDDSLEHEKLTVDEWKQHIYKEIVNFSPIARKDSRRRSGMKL

[16] = biological target: Platelet-derived growth factor receptor beta (Homo sapiens) (UniProt P09619); settings: Compound concentration 1000.0 nM
[17] = biological target: Phosphorylase b kinase gamma catalytic chain, skeletal muscle/heart isoform (Homo sapiens) (UniProt Q16816); settings: Compound concentration 1000.0 nM
[18] = tested on: Proto-oncogene tyrosine-protein kinase receptor Ret (Homo sapiens), P07949 [M918T]; settings: Compound concentration 1000.0 nM
[19] = biological target: D(3) dopamine receptor (Homo sapiens) (UniProt P35462); settings: Compound concentration 10.0 uM
[20] = biological target: Sodium-dependent serotonin transporter (Homo sapiens) (UniProt P31645); settings: Compound concentration 10.0 uM
[21] = biological target: Histamine H2 receptor (Homo sapiens) (UniProt P25021); settings: Compound concentration 10.0 uM
Chain of Histamine H2 receptor (Homo sapiens) (P25021 whole entry): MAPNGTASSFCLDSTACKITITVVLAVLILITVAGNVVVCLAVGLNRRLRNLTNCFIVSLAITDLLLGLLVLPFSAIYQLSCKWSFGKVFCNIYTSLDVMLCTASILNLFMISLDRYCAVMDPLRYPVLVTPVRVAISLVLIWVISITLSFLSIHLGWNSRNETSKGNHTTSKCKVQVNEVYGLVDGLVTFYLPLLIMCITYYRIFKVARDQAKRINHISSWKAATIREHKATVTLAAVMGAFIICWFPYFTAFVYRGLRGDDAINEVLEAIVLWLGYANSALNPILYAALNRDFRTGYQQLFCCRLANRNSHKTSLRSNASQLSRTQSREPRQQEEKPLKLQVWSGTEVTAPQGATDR

Chain of Cyclin-dependent kinase 3 (Homo sapiens) (Q00526 whole entry, looked up): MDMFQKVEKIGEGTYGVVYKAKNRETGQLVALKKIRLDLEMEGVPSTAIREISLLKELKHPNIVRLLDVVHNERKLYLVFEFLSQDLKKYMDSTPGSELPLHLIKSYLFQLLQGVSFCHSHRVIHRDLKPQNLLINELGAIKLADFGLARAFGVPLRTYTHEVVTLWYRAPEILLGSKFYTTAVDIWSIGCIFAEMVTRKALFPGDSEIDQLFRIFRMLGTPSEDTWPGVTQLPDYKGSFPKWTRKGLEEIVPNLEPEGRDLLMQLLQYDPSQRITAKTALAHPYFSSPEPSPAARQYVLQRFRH
Chain of Platelet-derived growth factor receptor beta (Homo sapiens) (P09619 whole entry, canonical isoform): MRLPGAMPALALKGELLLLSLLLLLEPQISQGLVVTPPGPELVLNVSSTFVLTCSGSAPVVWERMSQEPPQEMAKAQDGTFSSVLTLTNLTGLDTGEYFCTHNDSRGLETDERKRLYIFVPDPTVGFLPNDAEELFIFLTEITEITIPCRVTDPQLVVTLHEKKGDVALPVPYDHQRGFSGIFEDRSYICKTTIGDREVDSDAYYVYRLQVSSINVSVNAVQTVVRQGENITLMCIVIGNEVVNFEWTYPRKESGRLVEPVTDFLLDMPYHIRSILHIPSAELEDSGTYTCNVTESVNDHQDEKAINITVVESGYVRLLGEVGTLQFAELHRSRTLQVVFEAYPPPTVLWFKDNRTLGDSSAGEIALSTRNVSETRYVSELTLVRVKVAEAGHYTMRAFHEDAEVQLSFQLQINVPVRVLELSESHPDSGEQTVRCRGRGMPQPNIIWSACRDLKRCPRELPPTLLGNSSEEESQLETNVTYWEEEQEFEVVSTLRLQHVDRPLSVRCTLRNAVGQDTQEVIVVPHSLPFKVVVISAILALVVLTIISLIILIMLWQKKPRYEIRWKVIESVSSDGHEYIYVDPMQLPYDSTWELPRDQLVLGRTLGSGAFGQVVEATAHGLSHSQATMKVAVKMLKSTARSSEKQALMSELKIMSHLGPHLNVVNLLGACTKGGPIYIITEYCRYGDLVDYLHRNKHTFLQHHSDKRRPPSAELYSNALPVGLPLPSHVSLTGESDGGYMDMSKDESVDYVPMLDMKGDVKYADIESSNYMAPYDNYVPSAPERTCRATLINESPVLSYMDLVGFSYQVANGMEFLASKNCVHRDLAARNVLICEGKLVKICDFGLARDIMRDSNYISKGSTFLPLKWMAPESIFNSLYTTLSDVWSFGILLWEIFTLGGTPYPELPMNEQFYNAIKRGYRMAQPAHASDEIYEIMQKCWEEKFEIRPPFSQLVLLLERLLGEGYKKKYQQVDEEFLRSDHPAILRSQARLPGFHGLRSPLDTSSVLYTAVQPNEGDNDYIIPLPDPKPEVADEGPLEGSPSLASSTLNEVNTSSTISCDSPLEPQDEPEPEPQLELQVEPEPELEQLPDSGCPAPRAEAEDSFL
Chain of D(3) dopamine receptor (Homo sapiens) (P35462 whole entry): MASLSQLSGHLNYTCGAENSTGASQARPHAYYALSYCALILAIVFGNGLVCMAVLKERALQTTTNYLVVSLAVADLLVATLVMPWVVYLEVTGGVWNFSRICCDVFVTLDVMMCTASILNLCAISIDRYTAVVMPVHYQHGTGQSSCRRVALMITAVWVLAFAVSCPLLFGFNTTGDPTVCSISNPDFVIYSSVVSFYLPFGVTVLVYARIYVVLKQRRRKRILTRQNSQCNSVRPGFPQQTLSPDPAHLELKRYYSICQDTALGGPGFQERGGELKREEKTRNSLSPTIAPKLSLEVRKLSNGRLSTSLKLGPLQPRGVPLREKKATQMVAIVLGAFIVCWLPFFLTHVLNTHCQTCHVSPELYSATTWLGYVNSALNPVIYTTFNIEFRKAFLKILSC
Chain of Sodium-dependent serotonin transporter (Homo sapiens) (P31645 whole entry, looked up): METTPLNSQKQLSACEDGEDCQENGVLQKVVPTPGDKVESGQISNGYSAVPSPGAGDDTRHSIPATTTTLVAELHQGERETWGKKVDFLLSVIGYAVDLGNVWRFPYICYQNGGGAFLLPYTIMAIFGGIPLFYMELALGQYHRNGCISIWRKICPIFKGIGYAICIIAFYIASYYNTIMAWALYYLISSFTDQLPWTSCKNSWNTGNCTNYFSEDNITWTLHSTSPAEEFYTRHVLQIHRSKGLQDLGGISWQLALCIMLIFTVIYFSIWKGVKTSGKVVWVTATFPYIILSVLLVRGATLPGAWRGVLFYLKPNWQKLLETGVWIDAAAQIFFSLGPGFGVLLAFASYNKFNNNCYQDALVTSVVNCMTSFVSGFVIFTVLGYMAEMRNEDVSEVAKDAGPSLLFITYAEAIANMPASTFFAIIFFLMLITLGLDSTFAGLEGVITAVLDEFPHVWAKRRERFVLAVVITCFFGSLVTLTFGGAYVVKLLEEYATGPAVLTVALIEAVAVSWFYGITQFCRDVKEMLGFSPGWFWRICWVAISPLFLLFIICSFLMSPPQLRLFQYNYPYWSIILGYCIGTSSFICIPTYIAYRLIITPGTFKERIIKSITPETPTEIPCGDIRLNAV
Chain of Serine/threonine-protein kinase STK11 (Homo sapiens) (Q15831 whole entry): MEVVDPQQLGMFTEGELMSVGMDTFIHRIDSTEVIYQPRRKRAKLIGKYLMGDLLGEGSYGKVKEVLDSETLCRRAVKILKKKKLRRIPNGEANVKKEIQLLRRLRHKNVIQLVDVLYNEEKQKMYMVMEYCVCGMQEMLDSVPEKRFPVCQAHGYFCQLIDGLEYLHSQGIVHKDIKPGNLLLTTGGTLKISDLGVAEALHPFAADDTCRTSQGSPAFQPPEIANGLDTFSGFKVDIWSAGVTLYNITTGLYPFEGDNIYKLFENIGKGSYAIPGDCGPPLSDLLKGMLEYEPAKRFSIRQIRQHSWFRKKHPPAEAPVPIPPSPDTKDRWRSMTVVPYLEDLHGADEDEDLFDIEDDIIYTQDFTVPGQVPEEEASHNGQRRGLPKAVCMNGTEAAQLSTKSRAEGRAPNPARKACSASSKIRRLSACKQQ
Chain of Receptor tyrosine-protein kinase erbB-3 (Homo sapiens) (P21860 whole entry): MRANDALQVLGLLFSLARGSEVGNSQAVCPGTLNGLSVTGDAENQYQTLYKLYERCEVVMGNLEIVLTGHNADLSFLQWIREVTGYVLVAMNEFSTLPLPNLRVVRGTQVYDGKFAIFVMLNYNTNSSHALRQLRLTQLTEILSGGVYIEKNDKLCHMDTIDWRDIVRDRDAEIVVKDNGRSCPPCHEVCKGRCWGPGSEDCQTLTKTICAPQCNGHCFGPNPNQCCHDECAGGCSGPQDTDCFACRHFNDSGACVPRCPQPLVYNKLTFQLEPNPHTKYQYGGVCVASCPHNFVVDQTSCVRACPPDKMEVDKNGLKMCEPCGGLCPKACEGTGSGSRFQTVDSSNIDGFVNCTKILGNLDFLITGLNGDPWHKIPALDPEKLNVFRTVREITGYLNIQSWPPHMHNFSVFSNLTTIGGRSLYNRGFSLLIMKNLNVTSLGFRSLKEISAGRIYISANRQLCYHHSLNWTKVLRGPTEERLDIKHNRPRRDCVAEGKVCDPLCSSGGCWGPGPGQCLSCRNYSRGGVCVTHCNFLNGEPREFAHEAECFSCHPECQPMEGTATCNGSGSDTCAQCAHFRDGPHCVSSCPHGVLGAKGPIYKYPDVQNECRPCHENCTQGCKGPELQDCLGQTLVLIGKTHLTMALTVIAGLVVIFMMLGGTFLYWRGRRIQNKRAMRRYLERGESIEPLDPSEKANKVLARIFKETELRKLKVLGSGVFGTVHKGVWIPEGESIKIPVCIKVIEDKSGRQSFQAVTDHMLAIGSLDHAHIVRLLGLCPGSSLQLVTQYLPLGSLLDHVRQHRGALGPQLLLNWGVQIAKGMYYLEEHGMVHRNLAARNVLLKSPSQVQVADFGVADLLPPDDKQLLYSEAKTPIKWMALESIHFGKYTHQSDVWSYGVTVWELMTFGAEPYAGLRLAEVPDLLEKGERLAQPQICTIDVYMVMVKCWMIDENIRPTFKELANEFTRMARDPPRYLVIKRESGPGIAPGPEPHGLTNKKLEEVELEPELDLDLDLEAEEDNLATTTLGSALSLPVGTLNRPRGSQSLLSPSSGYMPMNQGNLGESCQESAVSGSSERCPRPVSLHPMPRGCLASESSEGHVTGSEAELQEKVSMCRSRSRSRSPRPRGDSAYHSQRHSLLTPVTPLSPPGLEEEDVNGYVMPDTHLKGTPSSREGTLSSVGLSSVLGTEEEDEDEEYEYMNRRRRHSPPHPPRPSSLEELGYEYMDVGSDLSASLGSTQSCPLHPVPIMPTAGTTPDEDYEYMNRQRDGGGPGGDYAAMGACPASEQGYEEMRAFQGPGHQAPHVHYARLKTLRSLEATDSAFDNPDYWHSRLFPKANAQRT
Chain of Mitogen-activated protein kinase 14 (Homo sapiens) (Q16539 whole entry): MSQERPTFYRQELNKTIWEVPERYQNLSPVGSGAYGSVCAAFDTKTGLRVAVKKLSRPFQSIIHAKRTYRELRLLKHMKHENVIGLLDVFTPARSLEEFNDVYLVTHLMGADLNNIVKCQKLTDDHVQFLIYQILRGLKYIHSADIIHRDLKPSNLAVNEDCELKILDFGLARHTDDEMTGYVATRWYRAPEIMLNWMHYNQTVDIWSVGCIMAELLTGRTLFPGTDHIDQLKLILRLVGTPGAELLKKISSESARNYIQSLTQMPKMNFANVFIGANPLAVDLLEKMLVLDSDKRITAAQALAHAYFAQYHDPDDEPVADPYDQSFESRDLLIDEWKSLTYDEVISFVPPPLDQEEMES

Structure (SMILES)	residual activity [1] [%]	residual activity [2] [%]	residual activity [3] [%]	residual activity [4] [%]	residual activity [5] [%]	residual activity [6] [%]	residual activity [7] [%]	residual activity [8] [%]	residual activity [9] [%]	residual activity [10] [%]	residual activity [11] [%]	residual activity [12] [%]	residual activity [13] [%]	residual activity [14] [%]	residual activity [15] [%]	residual activity [16] [%]	residual activity [17] [%]	residual activity [18] [%]	inhibition [19] [%]	inhibition [20] [%]	further results
CN(C)C(=O)Cn1cc(-c2nc(C3(c4ccc(-c5cnc(N)nc5)cc4)CC3)no2)cn1 [BI 0153]	48	87	100	100	72	77	100	87	100	100	92	100	81	100	91	94	97	99	-2.44	5.35	inhibition [21]: -9.18%
CN(C)C(=O)Cn1cc(-c2nc([C@@](C)(c3ccc(-c4cnc(N)nc4)cc3)C3CC3)no2)cn1 [BI 665915]	0	100	96	100	59	77	100	95	100	77	94	100	100	90	93	82	77	83	-5.97	6.28	inhibition [21]: -8.4%

Source: ChEMBL document CHEMBL4507276 (2021)
